Experimental findings from publication PMC5707495, “Systematic re-evaluation of the bis(2-hydroxyethyl)disulfide (HEDS) assay reveals an alternative mechanism and activity of glutaredoxins” (Chemical Science, 2015) are described below.

The structures appear in SMILES notation.

For one test, the target named is T1, ScGrx7 (Saccharomyces cerevisiae, UniProt P38068).
T1 construct: gene GRX7; recombinant, N-terminal MRGS(H)6 tag kept, altered stop codon; E. coli XL1-Blue; non-covalent dimer; monothiol, one Cys per subunit
T1 sequence (P38068 37-203 limits assumed): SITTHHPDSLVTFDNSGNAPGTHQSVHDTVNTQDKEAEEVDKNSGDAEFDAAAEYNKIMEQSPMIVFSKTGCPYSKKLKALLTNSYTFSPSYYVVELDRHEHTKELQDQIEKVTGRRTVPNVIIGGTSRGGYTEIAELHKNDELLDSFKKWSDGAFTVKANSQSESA
Put plainly: HEDS assay coupled to glutathione reductase, NADPH […] nm; Km replot and Dixon plot. The class given is biochemical.

The next test has as its target T2, PfGrx (Plasmodium falciparum, UniProt Q9NLB2).
T2 construct: gene PF3D7_0306300; dithiol Grx with Cys29 and Cys32 (CPYC motif) and Cys88 (GGC motif)
T2 sequence (Q9NLB2 1-111): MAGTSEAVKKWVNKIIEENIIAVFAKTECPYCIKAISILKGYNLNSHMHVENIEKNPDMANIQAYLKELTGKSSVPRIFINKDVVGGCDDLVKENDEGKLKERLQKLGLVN
The test is described as follows: HEDS assay coupled to glutathione reductase, NADPH […] nm. The class given is biochemical. To be noted: co-substrate GSH; sequential kinetics; pH 8.0, 25 °C.

On to `OCCS` [2-ME], for which the inhibition constant Ki – broadly, the dissociation constant of the complex between target and ligand, obtained from inhibition or displacement – at ScGrx7 amounted to 180 µM.

As for `OCCSSCCO` [HEDS, bis(2-hydroxyethyl)disulfide], the “HEDS assay coupled to glutathione reductase, NADPH 340 nm” value at PfGrx is given as “HEDS assays with PfGrx yielded sequential kinetic patterns”.
